Where a SMILES comes first, the peptide text is derived from it. Where no end group is shown, it is not given here. The star is where a group is joined. Biotin = O=C1N[C@H]2[C@H](CS[C@H]2CCCCC(=O)*)N1; Ahx = NCCCCCC(=O)O
Columns and labels:
αvβ6 [1] = target: T1, αvβ6 (Homo sapiens, UniProt P06756+P18564); assay: Cell adhesion assay: αvβ6-dependent adhesion of VB6 cells to LAP; type: cell-based
T1 construct: endogenous in cells; host or cells: VB6 human oral squamous cell carcinoma

A375Pβ6puro = type: cell-based, human
A375Ppuro = type: cell-based, human
αvβ6 [2] = target: αvβ6 (UniProt P18564+P43406); assay: cell-based; design: species or system mouse
rsαvβ6 [3] = target: T2, rsαvβ6 (Homo sapiens, UniProt P06756+P18564); assay: biochemical; type: binding
rsαvβ6 [4] = target: T2, rsαvβ6; assay: biochemical; type: binding; remark: listed apart in the source

T2 sequence (P06756 31-992 limits assumed): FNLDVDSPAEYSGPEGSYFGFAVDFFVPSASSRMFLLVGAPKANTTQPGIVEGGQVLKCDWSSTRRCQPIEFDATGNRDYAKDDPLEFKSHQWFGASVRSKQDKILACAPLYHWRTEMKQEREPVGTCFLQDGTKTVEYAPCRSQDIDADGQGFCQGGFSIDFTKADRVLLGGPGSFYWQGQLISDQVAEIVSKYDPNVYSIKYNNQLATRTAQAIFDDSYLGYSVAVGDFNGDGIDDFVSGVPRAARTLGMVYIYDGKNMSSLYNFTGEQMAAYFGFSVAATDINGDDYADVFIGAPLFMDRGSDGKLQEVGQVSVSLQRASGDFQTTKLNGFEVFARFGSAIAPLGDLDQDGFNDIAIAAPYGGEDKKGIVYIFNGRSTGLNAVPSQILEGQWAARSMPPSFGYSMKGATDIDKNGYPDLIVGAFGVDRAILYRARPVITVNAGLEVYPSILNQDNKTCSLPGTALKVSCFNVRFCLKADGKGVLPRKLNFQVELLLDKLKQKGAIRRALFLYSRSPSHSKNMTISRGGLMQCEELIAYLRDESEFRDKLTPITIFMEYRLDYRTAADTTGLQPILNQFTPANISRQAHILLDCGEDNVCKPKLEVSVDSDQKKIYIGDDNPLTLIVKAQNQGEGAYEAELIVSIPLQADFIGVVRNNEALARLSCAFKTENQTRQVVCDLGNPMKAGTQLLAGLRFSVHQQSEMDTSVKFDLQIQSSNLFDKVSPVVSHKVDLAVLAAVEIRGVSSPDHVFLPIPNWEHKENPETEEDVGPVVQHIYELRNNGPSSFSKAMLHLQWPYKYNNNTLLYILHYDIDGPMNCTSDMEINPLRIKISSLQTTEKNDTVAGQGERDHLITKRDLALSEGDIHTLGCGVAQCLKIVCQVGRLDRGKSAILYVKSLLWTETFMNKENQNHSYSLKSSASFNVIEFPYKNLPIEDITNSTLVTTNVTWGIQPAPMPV
T2 sequence (P18564 22-709 limits assumed): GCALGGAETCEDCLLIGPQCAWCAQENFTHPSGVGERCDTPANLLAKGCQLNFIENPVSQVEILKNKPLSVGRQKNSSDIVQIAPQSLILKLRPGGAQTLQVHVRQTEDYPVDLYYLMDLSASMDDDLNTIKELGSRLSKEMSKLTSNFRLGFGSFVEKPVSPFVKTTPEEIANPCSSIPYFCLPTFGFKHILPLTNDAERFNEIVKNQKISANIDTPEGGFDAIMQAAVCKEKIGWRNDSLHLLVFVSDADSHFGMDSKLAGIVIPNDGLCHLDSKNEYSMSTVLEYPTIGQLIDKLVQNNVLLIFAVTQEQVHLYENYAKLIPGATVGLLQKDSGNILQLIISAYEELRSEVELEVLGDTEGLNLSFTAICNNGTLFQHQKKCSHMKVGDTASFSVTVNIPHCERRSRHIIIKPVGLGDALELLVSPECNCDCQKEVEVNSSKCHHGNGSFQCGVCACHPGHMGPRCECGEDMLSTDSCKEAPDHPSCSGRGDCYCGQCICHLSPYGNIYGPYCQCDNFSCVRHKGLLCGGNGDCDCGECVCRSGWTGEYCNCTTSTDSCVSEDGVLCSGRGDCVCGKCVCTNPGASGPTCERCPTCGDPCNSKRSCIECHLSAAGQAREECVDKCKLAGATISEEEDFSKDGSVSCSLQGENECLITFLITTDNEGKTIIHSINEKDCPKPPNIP
T1 sequence (P06756 31-1048): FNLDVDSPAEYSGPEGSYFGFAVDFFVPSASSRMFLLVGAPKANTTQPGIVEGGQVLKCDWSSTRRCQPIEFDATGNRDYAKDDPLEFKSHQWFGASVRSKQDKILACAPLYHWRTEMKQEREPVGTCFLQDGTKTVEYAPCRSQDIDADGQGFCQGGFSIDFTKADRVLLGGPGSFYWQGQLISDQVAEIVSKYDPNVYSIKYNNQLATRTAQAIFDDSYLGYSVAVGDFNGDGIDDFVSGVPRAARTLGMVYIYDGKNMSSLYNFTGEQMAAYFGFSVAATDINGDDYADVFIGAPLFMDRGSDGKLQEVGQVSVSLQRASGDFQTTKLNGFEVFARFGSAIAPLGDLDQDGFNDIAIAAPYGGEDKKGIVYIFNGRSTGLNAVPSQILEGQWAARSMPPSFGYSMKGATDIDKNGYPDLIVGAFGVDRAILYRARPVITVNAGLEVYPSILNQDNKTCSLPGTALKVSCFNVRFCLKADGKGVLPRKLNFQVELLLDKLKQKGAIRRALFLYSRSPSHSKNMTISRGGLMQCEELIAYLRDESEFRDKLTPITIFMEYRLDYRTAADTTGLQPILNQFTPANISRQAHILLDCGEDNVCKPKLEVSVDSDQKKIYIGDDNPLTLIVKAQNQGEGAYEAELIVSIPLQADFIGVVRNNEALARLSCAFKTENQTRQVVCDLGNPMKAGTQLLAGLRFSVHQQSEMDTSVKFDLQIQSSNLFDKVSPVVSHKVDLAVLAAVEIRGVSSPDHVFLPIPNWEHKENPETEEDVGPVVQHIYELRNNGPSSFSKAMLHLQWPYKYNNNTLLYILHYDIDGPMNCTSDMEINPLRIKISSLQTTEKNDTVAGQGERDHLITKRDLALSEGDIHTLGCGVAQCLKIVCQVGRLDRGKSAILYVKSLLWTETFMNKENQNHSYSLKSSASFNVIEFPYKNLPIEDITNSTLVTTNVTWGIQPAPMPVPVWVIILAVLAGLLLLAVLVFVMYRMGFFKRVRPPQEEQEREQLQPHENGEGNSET
T1 sequence (P18564 22-788): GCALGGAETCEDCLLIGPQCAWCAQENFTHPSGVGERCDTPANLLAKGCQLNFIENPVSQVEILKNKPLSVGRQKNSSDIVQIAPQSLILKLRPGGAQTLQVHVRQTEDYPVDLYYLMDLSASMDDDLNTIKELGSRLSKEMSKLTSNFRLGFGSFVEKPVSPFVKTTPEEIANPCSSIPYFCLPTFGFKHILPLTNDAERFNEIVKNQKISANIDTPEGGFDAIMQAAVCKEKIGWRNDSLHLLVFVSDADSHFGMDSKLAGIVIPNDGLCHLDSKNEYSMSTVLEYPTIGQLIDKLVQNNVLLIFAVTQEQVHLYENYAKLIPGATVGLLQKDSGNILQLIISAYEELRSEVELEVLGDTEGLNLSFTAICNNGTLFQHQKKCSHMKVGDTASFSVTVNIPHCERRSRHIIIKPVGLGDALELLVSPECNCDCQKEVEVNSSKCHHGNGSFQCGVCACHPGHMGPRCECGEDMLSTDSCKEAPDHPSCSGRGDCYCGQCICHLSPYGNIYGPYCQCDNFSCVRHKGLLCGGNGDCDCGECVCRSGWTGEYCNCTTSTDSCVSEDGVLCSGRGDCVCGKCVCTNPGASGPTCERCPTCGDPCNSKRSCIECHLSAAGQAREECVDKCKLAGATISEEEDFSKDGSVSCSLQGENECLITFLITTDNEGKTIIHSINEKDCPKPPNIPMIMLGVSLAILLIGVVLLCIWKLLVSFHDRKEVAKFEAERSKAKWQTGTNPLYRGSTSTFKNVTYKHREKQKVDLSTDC

CC(C)C[C@H](NC(=O)[C@H](Cc1cnc[nH]1)NC(=O)[C@H](CCCNC(=N)N)NC(=O)[C@H](C)NC(=O)[C@H](Cc1cnc[nH]1)NC(=O)[C@@H](NC(=O)[C@@H](NC(=O)[C@@H](NC(=O)[C@H](CC(C)C)NC(=O)[C@H](Cc1cnc[nH]1)NC(=O)[C@H](C)NC(=O)[C@H](CC(C)C)NC(=O)[C@H](CC(=O)O)NC(=O)CNC(=O)[C@H](CCCNC(=N)N)NC(=O)[C@H](C)NC(=O)[C@H](CO)NC(=O)[C@H](C)NC(=O)[C@@H](NC(=O)[C@@H](N)Cc1ccc(O)cc1)[C@@H](C)O)[C@@H](C)O)[C@@H](C)O)[C@@H](C)O)C(=O)O [A20FMDV1]
IC50 (αvβ6 [1]): 38200 ± 31100 nM | binding to A375Pβ6puro (A375Pβ6puro): binding to A375Pβ6puro at 1 μM | binding to A375Ppuro (A375Ppuro): did not bind to A375Ppuro

CC(C)C[C@H](NC(=O)[C@H](CC(=O)O)NC(=O)CNC(=O)[C@H](CCCNC(=N)N)NC(=O)[C@H](CC(C)C)NC(=O)[C@H](CC(N)=O)NC(=O)[C@@H]1CCCN1C(=O)[C@@H](NC(=O)[C@H](C)NC(=O)[C@@H](N)CC(N)=O)C(C)C)C(=O)N[C@@H](CCC(N)=O)C(=O)N[C@H](C(=O)N[C@@H](CC(C)C)C(=O)N[C@@H](C)C(=O)N[C@@H](CCC(N)=O)C(=O)N[C@@H](CCCCN)C(=O)N[C@H](C(=O)N[C@@H](C)C(=O)N[C@@H](CCCNC(=N)N)C(=O)N[C@H](C(=O)O)[C@@H](C)O)C(C)C)C(C)C [A20FMDV2]
binding to A375Pβ6puro (A375Pβ6puro): observed at 10 μM, 1μM, 0.1 μM, 0.01 μM and 0.00 μM | differential binding A375Pβ6puro versus A375Ppuro (A375Pβ6puro): four orders of magnitude | binding to A375Ppuro (A375Ppuro): only at 10 μM

CC[C@H](C)[C@H](NC(=O)[C@@H](NC(=O)[C@H](C)NC(=O)[C@H](CC(C)C)NC(=O)[C@H](CC(=O)O)NC(=O)CNC(=O)[C@H](CCCNC(=N)N)NC(=O)[C@H](CCCNC(=N)N)NC(=O)CNC(=O)[C@@H](NC(=O)[C@@H](NC(=O)[C@H](Cc1ccccc1)NC(=O)CN)[C@@H](C)O)[C@@H](C)O)[C@@H](C)O)C(=O)N[C@@H](Cc1cnc[nH]1)C(=O)NCC(=O)N[C@@H](CCSC)C(=O)N[C@@H](CC(N)=O)C(=O)N[C@@H](CCCNC(=N)N)C(=O)N1CCC[C@H]1C(=O)N[C@@H](Cc1ccccc1)C(=O)O [A20LAP]
IC50 (αvβ6 [1]): 28700 ± 11000 nM | effect on VB6 adhesion to LAP (αvβ6 [1]): completely blocks cell adhesion | adhesion of 3T3β6.19 to LAP, % of control cell adhesion (αvβ6 [2]): 32±7% | binding to A375Pβ6puro (A375Pβ6puro): bound to both cell lines at 10 μM and 1 μM | binding of biotinylated peptide to immobilised rsαvβ6 (rsαvβ6 [3]): bound more than A20FMDV1 | binding to A375Ppuro (A375Ppuro): bound to both cell lines at 10 μM and 1 μM

CC(C)C[C@H](NC(=O)[C@H](CC(=O)O)NC(=O)CNC(=O)[C@H](CCCNC(=N)N)NC(=O)[C@H](CC(C)C)NC(=O)[C@H](CC(N)=O)NC(=O)[C@@H]1CCCN1C(=O)[C@@H](NC(=O)[C@H](C)NC(=O)[C@H](CC(N)=O)NC(=O)CCCCCNC(=O)CCCC[C@@H]1SC[C@@H]2NC(=O)N[C@@H]21)C(C)C)C(=O)N[C@@H](CCC(N)=O)C(=O)N[C@H](C(=O)N[C@@H](CC(C)C)C(=O)N[C@@H](C)C(=O)N[C@@H](CCC(N)=O)C(=O)N[C@@H](CCCCN)C(=O)N[C@H](C(=O)N[C@@H](C)C(=O)N[C@@H](CCCNC(=N)N)C(=O)N[C@H](C(=O)O)[C@@H](C)O)C(C)C)C(C)C [B-A20FMDV2]
binding to A375Pβ6 in the presence of 63G9 (A375Pβ6puro): completely abolished | binding to A375Pβ6 in the presence of control IgG (A375Pβ6puro): bound strongly | binding to A375Pβ6puro (A375Pβ6puro): high levels of binding at concentrations as low as 1 nM | binding to A375Ppuro (A375Ppuro): only low levels of binding

CC(C)C[C@@H]1NC(=O)[C@H](CC(=O)O)NC(=O)CNC(=O)[C@H](CCCNC(=N)N)NC(=O)[C@H](CC(C)C)NC(=O)[C@H](CC(N)=O)NC(=O)[C@@H]2CCCN2C(=O)[C@@H](NC(=O)[C@@H](CCCCN)NC(=O)[C@@H](Cc2ccc(O)cc2)NC(=O)[C@@H](CCC(=O)O)NC(=O)CCCCCNC(=O)CCCC[C@@H]2SC[C@@H]3NC(=O)N[C@@H]32)CSSC[C@@H](C(=O)N[C@@H](CCCNC(=N)N)C(=O)N[C@H](C(=O)N[C@@H](CCCCN)C(=O)O)[C@@H](C)O)NC(=O)[C@H](C(C)C)NC(=O)[C@H](CCCCN)NC(=O)[C@H](CCC(N)=O)NC(=O)[C@H](C)NC(=O)[C@H](CC(C)C)NC(=O)[C@H](C(C)C)NC(=O)[C@H](CCC(N)=O)NC1=O [B-DBD1]
binding to A375Pβ6 in the presence of 63G9 (A375Pβ6puro): greatly reduced | binding to A375Pβ6 in the presence of control IgG (A375Pβ6puro): bound strongly | binding to A375Pβ6puro (A375Pβ6puro): high levels of binding at concentrations as low as 1 nM | EC50 (rsαvβ6 [3]): 0.69 nM | binding of biotinylated peptide to immobilised rsαvβ6 (rsαvβ6 [3]): concentration-dependent binding | binding to A375Ppuro (A375Ppuro): only low levels of binding

CC(C)C[C@@H]1NC(=O)[C@H](CC(=O)O)NC(=O)CNC(=O)[C@H](CCCNC(=N)N)NC(=O)[C@H](CC(C)C)NC(=O)[C@H](CC(N)=O)NC(=O)[C@@H]2CCCN2C(=O)[C@H](C(C)C)NC(=O)[C@H](Cc2ccc(O)cc2)NC(=O)[C@@H](NC(=O)CCCCCNC(=O)CCCC[C@@H]2SC[C@@H]3NC(=O)N[C@@H]32)CSSC[C@@H](C(=O)O)NC(=O)[C@H](CCCCN)NC(=O)[C@H](C)NC(=O)[C@H](C(C)C)NC(=O)[C@H](CCCCN)NC(=O)[C@H](CCC(N)=O)NC(=O)[C@H](C)NC(=O)[C@H](CC(C)C)NC(=O)[C@H](C(C)C)NC(=O)[C@H](CCC(N)=O)NC1=O [B-DBD2]
binding to A375Pβ6 in the presence of 63G9 (A375Pβ6puro): completely abolished | binding to A375Pβ6 in the presence of control IgG (A375Pβ6puro): bound strongly | binding to A375Pβ6puro (A375Pβ6puro): high levels of binding at concentrations as low as 1 nM | EC50 (rsαvβ6 [3]): 1.7 nM | binding of biotinylated peptide to immobilised rsαvβ6 (rsαvβ6 [3]): concentration-dependent binding | binding to A375Ppuro (A375Ppuro): only low levels of binding

CC[C@H](C)[C@H](NC(=O)[C@@H](NC(=O)[C@H](C)NC(=O)[C@H](CC(C)C)NC(=O)[C@H](CC(=O)O)NC(=O)CNC(=O)[C@H](CCCNC(=N)N)NC(=O)[C@@H](N)CCCNC(=N)N)[C@@H](C)O)C(=O)N[C@@H](Cc1c[nH]cn1)C(=O)O [DD1]
IC50 (αvβ6 [2]): 216000 nM | adhesion of 3T3β6.19 to LAP, % of control cell adhesion (αvβ6 [2]): 57±4%

CC[C@H](C)[C@H](NC(=O)[C@@H](NC(=O)[C@H](C)NC(=O)[C@H](CC(C)C)NC(=O)[C@H](CC(=O)O)NC(=O)CNC(=O)[C@H](CCCNC(=N)N)NC(=O)[C@H](CCCNC(=N)N)NC(=O)CNC(=O)[C@@H](NC(=O)[C@@H](NC(=O)[C@@H](N)Cc1ccccc1)[C@@H](C)O)[C@@H](C)O)[C@@H](C)O)C(=O)O [DD2] (H-FTTGRRGDLATI-OH; N-terminus and C-terminus assumed)
IC50 (rsαvβ6 [4]): 30.9 nM | effect on VB6 adhesion to LAP (αvβ6 [1]): little effect

CC[C@H](C)[C@H](NC(=O)[C@@H](NC(=O)[C@H](C)NC(=O)[C@H](CC(C)C)NC(=O)[C@H](CC(=O)O)NC(=O)CNC(=O)[C@H](CCCNC(=N)N)NC(=O)[C@H](CCCNC(=N)N)NC(=O)CNC(=O)[C@@H](N)[C@@H](C)O)[C@@H](C)O)C(=O)O [DD3] (H-TGRRGDLATI-OH; N-terminus and C-terminus assumed)
IC50 (rsαvβ6 [4]): 22.6 nM | effect on VB6 adhesion to LAP (αvβ6 [1]): little effect | adhesion of 3T3β6.19 to LAP, % of control cell adhesion (αvβ6 [2]): 79±22%

CC(C)C[C@H](NC(=O)[C@H](CC(=O)O)NC(=O)CNC(=O)[C@H](CCCNC(=N)N)NC(=O)[C@H](CC(C)C)NC(=O)[C@H](CC(N)=O)NC(=O)[C@@H]1CCCN1C(=O)[C@@H](N)C(C)C)C(=O)N[C@@H](CCC(N)=O)C(=O)N[C@H](C(=O)N[C@@H](CC(C)C)C(=O)N[C@@H](C)C(=O)O)C(C)C [DD19]
IC50 (rsαvβ6 [4]): 85 nM | VB6 adhesion to LAP in the presence of peptide (αvβ6 [1]): the same as adhesion in the absence of peptide | IC50 (αvβ6 [2]): 190000 nM

CC(C)C[C@H](NC(=O)[C@H](CC(=O)O)NC(=O)CNC(=O)[C@H](CCCNC(=N)N)NC(=O)[C@H](CC(C)C)NC(=O)[C@H](CC(N)=O)NC(=O)[C@@H]1CCCN1C(=O)[C@@H](NC(=O)[C@H](C)NC(=O)[C@@H](N)CC(N)=O)C(C)C)C(=O)N[C@@H](CCC(N)=O)C(=O)N[C@@H](C(=O)N[C@@H](CC(C)C)C(=O)N[C@@H](C)C(=O)N[C@@H](CCC(N)=O)C(=O)N[C@@H](CCCCN)C(=O)N[C@@H](C(=O)N[C@@H](C)C(=O)N[C@@H](CCCNC(=N)N)C(=O)N[C@H](C(=O)O)[C@@H](C)O)C(C)C)C(C)C [DV1217]
binding to A375Pβ6puro (A375Pβ6puro): bound to A375Pβ6 at 10 μM and at 1 μM | loss of anti-αvβ6 potency versus A20FMDV2 (A375Pβ6puro): 1000 fold | binding to A375Ppuro (A375Ppuro): did not bind noticeably

CC(C)C[C@H](NC(=O)[C@H](CC(=O)O)NC(=O)CNC(=O)[C@H](CCCNC(=N)N)NC(=O)[C@H](C)NC(=O)[C@H](C)NC(=O)[C@H](C)NC(=O)[C@@H](N)CO)C(=O)N[C@@H](CCC(=O)O)C(=O)N[C@@H](CCC(N)=O)C(=O)N[C@@H](CC(C)C)C(=O)N[C@H](C(=O)N[C@@H](CO)C(=O)N[C@@H](CC(C)C)C(=O)N[C@@H](CC(C)C)C(=O)N[C@@H](CCC(N)=O)C(=O)N[C@@H](CC(N)=O)C(=O)N[C@@H](CC(N)=O)C(=O)N[C@H](C(=O)N[C@@H](CC(N)=O)C(=O)O)C(C)C)[C@@H](C)O [P-INK] (H-SAAARGDLEQLTSLLQNNVN-OH; N-terminus assumed)
inhibition of αvβ6-dependent adhesion / binding affinity to αvβ6 (αvβ6 [2]): inhibited αvβ6-dependent adhesion

Biotin-εAhx-eykCKLVGALQPDNVLQRCRTK [B-Ran, reference compound]
binding to A375Pβ6 in the presence of 63G9 (A375Pβ6puro): did not bind | binding to A375Pβ6 in the presence of control IgG (A375Pβ6puro): did not bind | binding to A375Pβ6puro (A375Pβ6puro): did not bind | binding of biotinylated peptide to immobilised rsαvβ6 (rsαvβ6 [3]): did not show any binding | binding to A375Ppuro (A375Ppuro): did not bind

SAAARGDLEQLTSLLQNNVNV [P18-INK]
inhibition of αvβ6-dependent adhesion / binding affinity to αvβ6 (αvβ6 [2]): significantly greater than that of DD19

{Biotin-Ahx}-PGRTFHRFGMGAITRTGNDL [B-A20LAP-Ran, reference compound]
binding of biotinylated peptide to immobilised rsαvβ6 (rsαvβ6 [3]): did show binding at 10 μM and 1 μM

Reference: patent US8927501B2, “αvβ6 peptide ligands and their uses” (priority 2005, dated 2015)
